Results published in patent US20100160228A1, “METHOD FOR INHIBITING OR STIMULATING ANGIOGENESIS IN AN INDIVIDUAL” (VALTION TEKNILLINEN TUTKIMUSKESKUS, priority 2007, published 2010).

Tests used:
HUVEC = experiment: Time-lapse chemokinesis assay; assay type: cell-based, human; conditions: HUVEC on gelatin, 4 hours time-lapse, peptide 200 nM, FIG. 5B
Procedure: FIG. 5. Controlled TCPTP activation inhibits VEGF-driven capillary formation, chemokinesis and chemotaxis. (A) HUVEC were cultured in fibrin gels and treated with or without VEGF and TAT peptides (200 nM). After 24 h the formation of capillary tubes was semiquantitatively scored. (B) HUVEC were plated on gelatin in the presence of the peptides (200 nM) or left untreated for 1 h. The cells were stimulated as indicated and migration of individual cells was tracked using time-lapse microscopy. Cumulative migration distance was plotted for randomly picked individual cells. (C) HUVEC were treated with 200 nM peptides and the transmigration assay was performed as in FIG. 3D. (D) HUVEC were transfected with siRNA against TCPTP or a control siRNA, and TCPTP expression was analysed with immunofluorescence. Equal exposures of TCPTP (green) and DAPI (blue) stainings are shown. 48 h post-transfection cells were subjected to transmigration assay as in […].
FIG. 9. TCPTP activation by α1-peptide inhibits VEGF induced chemokinesis. HUVEC were plated on gelatin in the presence of the peptides (200 nM) or left untreated for 1 h. The cells were stimulated as indicated and migration of individual cells was tracked using time-lapse microscopy. Representative images of individual cells overlayed with their migration patterns (different colours) at the indicated time points are shown.
Time-lapse chemokinesis assays. HUVEC were plated on gelatin-coated wells and allowed to attach for 1 h in the presence or absence of 200 nM α1TAT or ScrTAT and 20 ng/ml VEGF. Migration of individual cells was recorded at 5 min intervals for 4 h using 20× objective and digital video recording. The migration pathway of at least ten randomly picked cells was tracked using the Metamorph program. The cumulative migration distances were also plotted.

[1] = target: T1, Recombinant, purified TCPTP (Homo sapiens, UniProt P17706); experiment: In vitro phosphatase assay with purified TCPTP protein (diFMUP substrate); assay type: biochemical; conditions: TAT peptides of D-amino acids, FIG. 4C
T1 construct: made in house
T1 sequence (P17706 1-387 isoform P17706-2): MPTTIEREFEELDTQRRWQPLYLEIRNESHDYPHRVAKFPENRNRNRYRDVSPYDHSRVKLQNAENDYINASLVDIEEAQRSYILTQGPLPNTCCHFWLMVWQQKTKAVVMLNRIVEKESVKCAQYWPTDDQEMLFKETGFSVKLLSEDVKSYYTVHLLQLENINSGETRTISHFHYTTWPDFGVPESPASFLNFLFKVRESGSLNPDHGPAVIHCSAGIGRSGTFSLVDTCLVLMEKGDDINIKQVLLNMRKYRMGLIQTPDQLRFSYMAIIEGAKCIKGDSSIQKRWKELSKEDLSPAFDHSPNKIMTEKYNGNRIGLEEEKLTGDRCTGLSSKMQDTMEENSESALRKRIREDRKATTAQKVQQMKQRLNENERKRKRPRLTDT
Procedure: FIG. 4. α1 integrin activates TCPTP and attenuates VEGFR2 signalling. (A) Serum-starved subconfluent HUVEC were treated for 1 h with α1 integrin cytoplasmic tail fusion peptide (α1TAT) or TAT-scramble control fusion peptide (ScrTAT) (both at 200 nM) followed by VEGF-induction (100 ng/ml, 15 min) where indicated. Cell lysates were resolved on SDS-PAGE and immunoblotted for phosphorylated VEGFR2 (or tubulin as a control). (B) HUVEC were treated as in (A) and VEGFR2 kinase activity (mean±SD, n=3) was measured from the cell lysates. **, p<0.01. (C) Recombinant, purified TCPTP was incubated with α1 or α2 cytoplasmic tail peptides (L-amino acids) or with α1 and scrambled TAT peptides (D-amino acids) and analyzed for phosphatase activity (mean±SD, n=3).
Phosphatase and kinase assays. Phosphatase assays were performed as described (8). Briefly, HUVEC were plated to collagen or gelatin coated plates and allowed to adhere for 1 h. TCPTP, SHP2 and control immunocomplexes were isolated from cell lysates, resuspended in the phosphatase assay buffer and assayed for phosphatase activity using 6,8-difluoro-4-methylumbelliferyl phosphate; Molecular Probes) as a substrate in the presence of a serine/threonine phosphatase inhibitor cocktail (Sigma). Thereafter, the antigens from the beads were used for immunoblotting. […]

Sequence | inhibition of VEGF-induced chemokinesis (HUVEC) | activation of TCPTP phosphatase activity [1]
YGRKKRRQRRRLKGWRFKLKPKFKEMK (SEQ ID NO 8) [ScrTAT, reference compound] | no significant effect | no effect
YGRKKRRQRRRWKLGFFKRPLKKKMEK (SEQ ID NO 3) [α1TAT] | 76±4% | very good activator
